Laboratory results taken from PubChem BioAssay AID248 (DTP/NCI, 2004).
Inconclusive results and toxic doses are left out. No stated cut-off is given here; in the data, active means T/C of 150% or more; inactive means T/C below 125%.

Tested on: L1210 leukemia ip in BDF1 mice, survival T/C
Test: NCI In Vivo Anticancer Drug Screen. Data for tumor model L1210 Leukemia (intraperitoneal) in B6D2F1 (BDF1) mice
Conditions: endpoint: mean survival time, higher = longer survival
Method in brief: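 Survival endpoint. Drug-treated group vs vehicle group, expressed as T divided by C. Tumor passaged by transplantation.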

[1] = dose: 100.0 mg/kg/injection, schedule: Q01DX001 (ip), vehicle: saline
[2] = dose: 100.0 mg/kg/injection, schedule: Q04DX003 (ip), vehicle: saline
[3] = dose: 200.0 mg/kg/injection, schedule: Q01DX001 (ip), vehicle: saline
[4] = dose: 200.0 mg/kg/injection, schedule: Q04DX003 (ip), vehicle: saline
[5] = dose: 400.0 mg/kg/injection, schedule: Q01DX001 (ip), vehicle: saline
[6] = dose: 400.0 mg/kg/injection, schedule: Q04DX003 (ip), vehicle: saline
[7] = dose: 200.0 mg/kg/injection, schedule: Q01DX001 (ip), vehicle: Klucel (hydroxypropylcellulose) (HPC)
[8] = dose: 100.0 mg/kg/injection, schedule: Q04DX003 (ip), vehicle: Klucel (hydroxypropylcellulose) (HPC)
[9] = dose: 200.0 mg/kg/injection, schedule: Q04DX003 (ip), vehicle: Klucel (hydroxypropylcellulose) (HPC)
[10] = dose: 400.0 mg/kg/injection, schedule: Q04DX003 (ip), vehicle: Klucel (hydroxypropylcellulose) (HPC)
[11] = dose: 9.5 mg/kg/injection, schedule: Q01DX001 (ip), vehicle: other
[12] = dose: 38.0 mg/kg/injection, schedule: Q01DX001 (ip), vehicle: other
[13] = dose: 100.0 mg/kg/injection, schedule: Q01DX009 (ip), vehicle: saline with Tween-80
[14] = dose: 100.0 mg/kg/injection, schedule: Q04DX002 (ip), vehicle: Klucel (hydroxypropylcellulose) (HPC)
[15] = dose: 200.0 mg/kg/injection, schedule: Q04DX002 (ip), vehicle: Klucel (hydroxypropylcellulose) (HPC)
[16] = dose: 400.0 mg/kg/injection, schedule: Q04DX002 (ip), vehicle: Klucel (hydroxypropylcellulose) (HPC)

Measured: T/C

O=S(=O)(/C=C\c1ccccc1)N1CCCc2ccccc21
inactive: [1] 106 % of control | [2] 98 % of control | [3] 98 % of control | [4] 102 % of control | [5] 101 % of control | [6] 98 % of control

CC(=O)NC(CCC(N)=O)C(=O)O (configuration not stated)
inactive: dose: 100.0 mg/kg/injection, schedule: Q04DX002 (ip), vehicle: saline 99 % of control | dose: 200.0 mg/kg/injection, schedule: Q04DX002 (ip), vehicle: saline 89 % of control | dose: 400.0 mg/kg/injection, schedule: Q04DX002 (ip), vehicle: saline 96 % of control

O=Cc1ccc(-c2ccc([N+](=O)[O-])cc2)o1
inactive: dose: 100.0 mg/kg/injection, schedule: Q01DX001 (ip), vehicle: saline with Tween-80 92 % of control | dose: 200.0 mg/kg/injection, schedule: Q01DX001 (ip), vehicle: saline with Tween-80 94 % of control | dose: 400.0 mg/kg/injection, schedule: Q01DX001 (ip), vehicle: saline with Tween-80 103 % of control

CC1(C(Cl)Cl)C=CC=CC1=O (configuration not stated)
inactive: dose: 100.0 mg/kg/injection, schedule: Q01DX001 (ip), vehicle: Klucel (hydroxypropylcellulose) (HPC) 102 % of control | [7] 106 % of control | dose: 400.0 mg/kg/injection, schedule: Q01DX001 (ip), vehicle: Klucel (hydroxypropylcellulose) (HPC) 104 % of control

O=[N+]([O-])c1cc(S(=O)(=O)O)cc(S(=O)(=O)O)c1O
inactive: dose: 100.0 mg/kg/injection, schedule: Q01DX009 (ip), vehicle: saline 102 % of control | [2] 94 % of control | dose: 200.0 mg/kg/injection, schedule: Q01DX009 (ip), vehicle: saline 94 % of control | [4] 100 % of control | dose: 400.0 mg/kg/injection, schedule: Q01DX009 (ip), vehicle: saline 91 % of control | [6] 93 % of control

CCC(Nc1ccccc1)Nc1ccccc1
inactive: dose: 100.0 mg/kg/injection, schedule: Q04DX003 (ip), vehicle: acetone 112 % of control | dose: 200.0 mg/kg/injection, schedule: Q04DX003 (ip), vehicle: acetone 87 % of control | dose: 400.0 mg/kg/injection, schedule: Q04DX003 (ip), vehicle: acetone 94 % of control

NC(=S)NC(=S)Nc1ccccc1
inactive: [8] 103 % of control | [9] 110 % of control | [10] 106 % of control

CCN(CC)CCCC(C)Nc1cc(N)nc2nc(-c3ccccc3)c(-c3ccccc3)nc12 (configuration not stated)
inactive: [11] 89 % of control | [12] 87 % of control | dose: 75.0 mg/kg/injection, schedule: Q01DX001 (ip), vehicle: other 96 % of control

O=C(N/N=C\c1c[nH]c2ccccc12)N/N=C/c1c[nH]c2ccccc12
inactive: dose: 100.0 mg/kg/injection, schedule: Q04DX002 (ip), vehicle: saline with Tween-80 97 % of control | dose: 200.0 mg/kg/injection, schedule: Q04DX002 (ip), vehicle: saline with Tween-80 104 % of control | dose: 400.0 mg/kg/injection, schedule: Q04DX002 (ip), vehicle: saline with Tween-80 97 % of control

O=C(Cc1ccc2ccccc2c1)c1c[nH]c2ccccc12
inactive: dose: 50.0 mg/kg/injection, schedule: Q01DX001 (ip), vehicle: saline 102 % of control | [1] 102 % of control | [3] 98 % of control | [5] 93 % of control

CCOC(=O)C(N)Cc1ccc(OC)c(N(CCCl)CCCl)c1 (configuration not stated)
active: dose: 1.1 mg/kg/injection, schedule: Q01DX009 (ip), vehicle: carboxymethylcellulose (CMC) 154 % of control | dose: 1.5 mg/kg/injection, schedule: Q01DX009 (ip), vehicle: carboxymethylcellulose (CMC) 155 % of control | dose: 1.7 mg/kg/injection, schedule: Q01DX009 (ip), vehicle: carboxymethylcellulose (CMC) 160 % of control | dose: 2.6 mg/kg/injection, schedule: Q01DX009 (ip), vehicle: carboxymethylcellulose (CMC) 160 % of control | dose: 9.0 mg/kg/injection, schedule: Q01DX001 (ip), vehicle: carboxymethylcellulose (CMC) 164 % of control
inactive: dose: 0.21 mg/kg/injection, schedule: Q01DX009 (ip), vehicle: carboxymethylcellulose (CMC) 112 % of control | dose: 0.32 mg/kg/injection, schedule: Q01DX009 (ip), vehicle: carboxymethylcellulose (CMC) 112 % of control | dose: 0.48 mg/kg/injection, schedule: Q01DX009 (ip), vehicle: carboxymethylcellulose (CMC) 122 % of control | dose: 0.75 mg/kg/injection, schedule: Q01DX009 (ip), vehicle: carboxymethylcellulose (CMC) 112 % of control | dose: 1.5 mg/kg/injection, schedule: Q01DX001 (ip), vehicle: carboxymethylcellulose (CMC) 115 % of control | dose: 2.6 mg/kg/injection, schedule: Q01DX001 (ip), vehicle: carboxymethylcellulose (CMC) 119 % of control | dose: 3.0 mg/kg/injection, schedule: Q01DX001 (ip), vehicle: carboxymethylcellulose (CMC) 117 % of control | dose: 3.0 mg/kg/injection, schedule: Q01DX009 (ip), vehicle: carboxymethylcellulose (CMC) 121 % of control | dose: 4.0 mg/kg/injection, schedule: Q01DX009 (ip), vehicle: carboxymethylcellulose (CMC) 120 % of control

CC(=O)Nc1nc(C)c(CCCN(c2ccccc2)S(=O)(=O)c2ccc(N)cc2)c(=O)[nH]1
inactive: [7] 88 % of control

Cc1ccc(C(c2ccc(C)cc2)C(Cl)Cl)cc1
inactive: [13] 96 % of control | dose: 200.0 mg/kg/injection, schedule: Q01DX009 (ip), vehicle: saline with Tween-80 109 % of control | dose: 400.0 mg/kg/injection, schedule: Q01DX009 (ip), vehicle: saline with Tween-80 107 % of control

O=c1ssc(Cl)c1Cl
inactive: [11] 94 % of control | dose: 10.0 mg/kg/injection, schedule: Q04DX003 (ip), vehicle: other 97 % of control | dose: 19.0 mg/kg/injection, schedule: Q01DX001 (ip), vehicle: other 103 % of control | dose: 20.0 mg/kg/injection, schedule: Q04DX003 (ip), vehicle: other 107 % of control | [12] 87 % of control | dose: 40.0 mg/kg/injection, schedule: Q04DX003 (ip), vehicle: other 88 % of control

CC(C)(C)[CH2][Sn]([CH2]C(C)(C)C)([CH2]C(C)(C)C)[c]1ccc(-c2ccccc2)cc1
inactive: [14] 111 % of control | [15] 92 % of control | [16] 92 % of control

COC1=C(OC)C(=O)C(Sc2ccc3ccccc3c2)=CC1=O
inactive: dose: 6.25 mg/kg/injection, schedule: Q01DX009 (ip), vehicle: saline with Tween-80 100 % of control | dose: 12.5 mg/kg/injection, schedule: Q01DX009 (ip), vehicle: saline with Tween-80 94 % of control | dose: 25.0 mg/kg/injection, schedule: Q01DX009 (ip), vehicle: saline with Tween-80 100 % of control | dose: 50.0 mg/kg/injection, schedule: Q01DX009 (ip), vehicle: saline with Tween-80 96 % of control | [13] 94 % of control

C=Cc1cc(C)cc(OC)c1O
inactive: dose: 50.0 mg/kg/injection, schedule: Q01DX009 (ip), vehicle: Klucel (hydroxypropylcellulose) (HPC) 87 % of control | dose: 100.0 mg/kg/injection, schedule: Q01DX009 (ip), vehicle: Klucel (hydroxypropylcellulose) (HPC) 89 % of control | dose: 200.0 mg/kg/injection, schedule: Q01DX009 (ip), vehicle: Klucel (hydroxypropylcellulose) (HPC) 87 % of control

COc1ccc(Cc2nc(-c3ccc(N=Cc4ccc(N(CCCl)CCCl)cc4)cc3)cs2)cc1
inactive: dose: 50.0 mg/kg/injection, schedule: Q01DX001 (ip), vehicle: carboxymethylcellulose (CMC) 88 % of control | dose: 100.0 mg/kg/injection, schedule: Q01DX001 (ip), vehicle: carboxymethylcellulose (CMC) 92 % of control | dose: 200.0 mg/kg/injection, schedule: Q01DX001 (ip), vehicle: carboxymethylcellulose (CMC) 97 % of control | dose: 400.0 mg/kg/injection, schedule: Q01DX001 (ip), vehicle: carboxymethylcellulose (CMC) 94 % of control

Cc1cccc(Cl)c1NC(=O)NCCCl
inactive: [8] 94 % of control | [9] 92 % of control | [10] 94 % of control

COC1OC(COC(=O)c2ccccc2)C(OC(=O)c2ccccc2)C(OC(=O)c2ccccc2)C1OS(=O)(=O)c1ccc(C)cc1 (configuration not stated)
inactive: [14] 103 % of control | [15] 88 % of control | [16] 88 % of control
